Columns and labels:
[1] = test system: T2 cells loaded with individual peptides; assay: 51Cr Release Assay for activity of CTL generated with peptide-loaded Drosophila aAPC; assay type: cell-based, human; set-up: key to CTL Activity: Strong (S); Median (M); Weak (W); None (N); settings: for Ability to induce CTL in normal donors: truncated and computer predicted peptides; for Induction of CTL in two normal donors: Donor 1 and Donor 2, FIG. 3 and FIG. 4; for CTL Activities Median: number of donors that elicited Median activity over total number of donors; for CTL Activities Median / CTL Activities Strong / CTL Activities Weak / CTL Activities None: T2 targets loaded with individual peptide; for CTL Activities Strong: number of donors that elicited Strong activity over total number of donors; for CTL Activities Weak: number of donors that elicited Weak activity over total number of donors; for CTL Activities None: number of donors that elicited no activity over total number of donors
Description: Drosophila aAPC were generated from Schneider S2 cells (S2 cells), which were originally established in 1969 from several hundred Oregon-R (wild type) Drosophila melanogaster (Oregon-R) embryos (American Type Culture Collection (ATCC) CRL-1963) according to published procedures (Schneider, J. Embryol. Exp. Morph. 1972 Vol 27, pp. 353-365), and deposited in the ATCC(CRL10974). S2 cells are grown in commercial Schneider's Drosophila medium supplemented with 10% heat-inactivated fetal bovine serum. In order to generate aAPCs, human complementary DNAs (cDNAs) for HLA-A2.1, B7.1, LFA-3, ICAM-1 and CD70, were individually inserted into the pRmHa-3 vector and S2 cells were transfected using the calcium phosphate precipitation method with a mixture of HLA-A2.1, B7.1, LFA-3, ICAM-1 and CD70 plasmid DNAs (for aAPC clone 1120) and the phshneo plasmid. (see U.S. Pat. No. 6,225,042 regarding construction and use of pRMHa plasmid vectors). The human cDNAs were prepared using standard techniques by reverse transcription-PCR using primers derived from the published sequences for HLA-A2.1 from K562 cells, B7.1 from K562 cells, LFA-3 from HL60 cells, ICAM-1 from K562 cells, and CD70 from HLA-A2.1+LCL cells. K562 cells are a human erythroleukemic cell line, HL60 cells are a promyelocytic leukemia human cell line, and HLA-A2.1+LCL cells are an Epstein-Barr virus (EBV)-transformed lymphoblastoid cell line (LCL). Stably transfected cells were selected by culturing in Schneider's medium containing geneticin. Prior to scale up of the cells, expression of the transfected genes is induced by the addition of CuSO4. The level of expression is assessed by flow cytometry using anti-HLA-A2.1, anti-B7.1, anti-LFA-3, anti-ICAM-1 and CD70 antibodies. For efficient in vitro activation of the CD8+ lymphocytes, greater than 30% of the Drosophila cells must express the HLA-A2.1 molecule. The Drosophila cells regularly express each of the molecules at levels between 70-90%. Drosophila aAPC were washed and then incubated at RT for 4 hours with 10 μM of different combinations of mixed peptides or individual peptides (See e.g. U.S. Pat. Nos. 6,225,042, 6,355,479, 6,362,001 and 6,790,662; U.S. Patent Application Publication Nos. 2009/0017000 and 2009/0004142; and International Publication No. WO2007/103009). Purified human CD8+ T cells from HLA-A2 positive donors were then incubated with peptide-loaded Drosophila APC at 37° C., 5% CO2, for 5 days. Human IL-2 (20 U/ml, R&D Systems) and IL-7 (30 U/ml, R&D Systems) were added at day 5 and the activated CD8+ T cells (CTL) were re-stimulated twice, at day 7 and day 15, with non-CD8 adherent cells in a total peripheral blood mononuclear cell (PBMC) preparation from the same donor in the presence of peptides.
A number of different CTL were generated using CD8+ T cells from different donors and different combinations of mixed peptides, including combinations that contained only one peptide. For example, 24 selected peptides were mixed or used individually to create different combinations of peptide mixtures (PM) or individual peptides (P5 and P14) and produce peptide-loaded Drosophila APC. The resulting peptide-loaded Drosophila APC were incubated with CD8+ T cells from 2 different donors (Donor 1 and Donor 2) to produce 11 different batches of CTL (Donor 1: PM1, PM2, PM3, PM4, and P14; Donor 2: PM1, PM2, PM3, PM4, P5, and P14) (Table 3).
CTL (Effector) activity was measured with a standard chromium (^51Cr) release assay, with T2 cells (Target) loaded with individual peptides and also with a number of tumor cell lines as target cells (Brunner et al., Immunology. 1968 February; 14(2):181-96). The highest Effector (E) Target (T) ratio (E/T) was 50:1, with 1:5 serial dilutions of CTL (Effector) used to produce a dose response. Before the assay, Target cells (T2 cells at 3×10^6 cells/100 ul in 1×PBS with 4% FCS) were labeled by adding 100 ul of ^51Cr (Perkin Elmer) and incubating at 37° C. for 1 hour. […]

[2] = molecular target: T1, HLA-A2 molecules in T2 cells (Homo sapiens, UniProt P04439, D140Y/D185E/D98H/E176V/E277Q/G131W/G231S/I119V/I121R/I166T/I218V/L300P/L318F/N151K/N90K/P208A/P217A/Q86G/Q94H/R138H/R169H/T345S); assay: HLA-A2 Stabilization Assay (peptide binding, T2 cells, flow cytometry); set-up: key: Strong (S); Median (M); Weak (W); None (N)
T1 construct: HLA-A2 molecules that are synthesized in a transporter associated with antigen processing (TAP)-deficient cell line, T2; host or cells: T2 cells (TAP-deficient human cell line)
Description: The assay for peptide binding to class I major histocompatibility complex (MHC/HLA-A2) molecules is based on the ability of peptides to stabilize MHC class I, HLA-A2 molecules that are synthesized in a transporter associated with antigen processing (TAP)-deficient cell line, T2 (ATCC® Number: CRL-1992). The extent of stabilization of MHC class I molecules is directly related to the binding affinity of the added peptides (Townsend et al., Cell. 1990 Jul. 27; 62(2):285-95; Andersen et al., Tissue Antigens. 1999 August; 54(2):185-90).
For the assay, T2 cells were plated in 96-well V-bottom plates, 100 ul/well RPMI media, at a density of 1×10^6 cells/ml, with final peptide concentrations of 200 uM, 20 uM, 2 uM, 200 nM, 20 nM, 2 nM, and no peptide as negative control. The cells with peptides were incubated for 18 hours at 26° C., 5% CO2. After 18 hours, the plates were transferred to 37° C., 5% CO2 and incubated for an additional 3 hours. The cells in plate were washed once with FACS buffer (PBS, 2.5% FCS, 1% NaN3) and then stained by adding 1 ul/well FITC-labeled mouse anti-human HLA-A2 antibody (BD Pharmingen, Cat. No. 551285), 1 ul/well PI, and then incubating at 4° C. for 30 minutes. After staining, cells were resuspended in 200 ul of FACS buffer and transferred from 96-well plates to racks of 96 microtubes. Samples were run on a FACScan flow cytometer and the data were analysed by using CellQuest software.
A peptide of Hepatitis B Core protein (HBC) was used as a positive control. The Hepatitis B Core peptide is a potent HLA-A2.1 epitope and consists of residue numbers 18-27 of the core sequence, amino acids […] (SEQ ID NO:73) (Zhang et al. Immunology. 2007, 121(1):105-12).

[3] = CTL generated with truncated peptides, T2 targets loaded with individual peptides
[4] = truncated versions of P3, P13, P14
[5] = T2 targets loaded with computer predicted peptides

Substance	HLA-A2 Binding [2, 4]	HLA-A2 Binding ([2]; computer predicted peptides)	CTL Activity [1, 3]	Ability to induce CTL in normal donors [1]	CTL Activity [1, 5]	other results
LVLNLLE (listed as Homo sapiens) [Peptide P3-8]	N	–	M	able to induce CTL	–	–
TLVDLPGM (listed as Homo sapiens) [Peptide P13-8]	N	–	M	–	–	–
NLLELVHLL (listed as Homo sapiens) [Peptide P3-9]	–	S	–	able to induce CTL	–	–
TLVDLP (listed as Homo sapiens) [Peptide P13-10]	N	–	S	–	–	–
LVYLGHVIYL (listed as Homo sapiens) [Peptide P3-11]	–	W	–	able to induce CTL	S	–
SLVLNLLEL (listed as Homo sapiens) [Peptide P3]	M	–	M	–	–	Induction of CTL in two normal donors [1]: induced CTL; CTL Activities Median [1]: 1/12; CTL Activities Strong [1]: 5/12; CTL Activities Weak [1]: 4/12; CTL Activities None [1]: 2/12

Now from value to substance, other results behind:

HLA-A2 Binding [2, 4]	HLA-A2 Binding ([2]; computer predicted peptides)	Substance	CTL Activity [1, 3]	Ability to induce CTL in normal donors [1]	CTL Activity [1, 5]	other results
M	–	LVDLPGM (listed as Homo sapiens) [Peptide P13-13]	W	able to induce CTL	–	–
–	M	KLHDAIVEVV (listed as Homo sapiens) [Peptide P13-16]	–	–	W	–
–	M	FQMEQIVYC (listed as Homo sapiens) [Peptide P14-19]	–	able to induce CTL	M	–
–	S	KLHDAIVEV (listed as Homo sapiens) [Peptide P13-17]	–	able to induce CTL	S	–
W	–	IDLPGIT (listed as Homo sapiens) [Peptide P14-16]	W	–	–	–
M	–	TLIDLPGITRV (listed as Homo sapiens) [Peptide P14]	M	–	–	Induction of CTL in two normal donors [1]: induced CTL; CTL Activities Median [1]: 1/17; CTL Activities Strong [1]: 14/17; CTL Activities Weak [1]: 1/17; CTL Activities None [1]: 1/17
W	–	IDLPGITR (listed as Homo sapiens) [Peptide P14-14]	M	able to induce CTL	–	–
M	–	TLVDLPGMTKV (listed as Homo sapiens) [Peptide P13]	M	–	–	Induction of CTL in two normal donors [1]: induced CTL; CTL Activities Median [1]: 2/13; CTL Activities Strong [1]: 4/13; CTL Activities Weak [1]: 5/13; CTL Activities None [1]: 2/13
–	S	FVPEVSFEL (listed as Homo sapiens) [Peptide P13-18]	–	able to induce CTL	M	–
W	–	LIDLPGI (listed as Homo sapiens) [Peptide P14-15]	S	able to induce CTL	–	–

Source: patent publication US8232101B2, “Identification of antigenic peptides from multiple myeloma cells” (Janssen Pharmaceutica N.V., priority 2009, dated 2012)
